Data taken from PubChem BioAssay (NCI).
“And” between values parts separate entries of the source, which are not always exact repeats. Identical values can stand only once.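 Where inhibition never reached the appropriate level, the endpoint shown equals the highest concentration tested. Otherwise, values were interpolated linearly from a five-concentration, 48-hour dose response in 96-well plates. GI50: concentration for 50% inhibition of growth. TGI: concentration producing complete growth inhibition.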

What was measured:
Assay in all cases: NCI tumour cell line growth inhibition, 48 h
786-0 renal = system: 786-0 renal
ACHN renal = system: ACHN renal
CCRF-CEM leukemia = system: CCRF-CEM leukemia
HOP-62 NSCLC = system: HOP-62 NSCLC
IGROV1 ovarian = system: IGROV1 ovarian
LOX IMVI melanoma = system: LOX IMVI melanoma
M14 melanoma = system: M14 melanoma
NCI-H522 lung = system: NCI-H522 lung
SNB-75 CNS = system: SNB-75 CNS
TK-10 renal = system: TK-10 renal

`COc1cccc2c1C(=O)c1c(O)c3c(c(O)c1C2=O)CC(O)(C(=O)CO)CC3OC1CC(N)C(O)C(C)O1` (centres undefined) was tested, and the GI50 (786-0 renal) was 6.54 mg/L and 10.4 mg/L, the TGI (786-0 renal) was 75 mg/L and > 150 mg/L and the GI50 (ACHN renal) was 20.2 mg/L and 12.2 mg/L. For the same compound, the TGI (ACHN renal) was 75 mg/L and > 150 mg/L, the GI50 (CCRF-CEM leukemia) was 0.801 mg/L and 4.97 mg/L and the GI50 (HOP-62 NSCLC) was 5.83 mg/L and 5.96 mg/L. The TGI (HOP-62 NSCLC) was 75 mg/L and > 150 mg/L, the GI50 (IGROV1 ovarian) was 16.1 mg/L and 60.1 mg/L and the TGI (IGROV1 ovarian) was 75 mg/L and > 150 mg/L. For the same compound, the GI50 (LOX IMVI melanoma) was 3.89 mg/L and 19.5 mg/L, the TGI (LOX IMVI melanoma) was 75 mg/L and > 150 mg/L and the GI50 (M14 melanoma) was 9.35 mg/L and 48.5 mg/L. For the same compound, the TGI (M14 melanoma) was 75 mg/L and > 150 mg/L, the GI50 (NCI-H522 lung) was 4.07 mg/L and the TGI (NCI-H522 lung) was 75 mg/L. The GI50 (SNB-75 CNS) was 9.12 mg/L and 51.1 mg/L, the TGI (SNB-75 CNS) was 55 mg/L and > 150 mg/L and the GI50 (TK-10 renal) was 75 mg/L and 30 mg/L. The TGI (TK-10 renal) was 75 mg/L and > 150 mg/L.
With `COc1ccc(OC)c(/C=C/c2nc(SCc3ccccc3)n(-c3ccc(Cl)cc3)n2)c1` the GI50 (786-0 renal) was 7.66 µM, the TGI (786-0 renal) was > 100 µM and the GI50 (ACHN renal) was 23.2 µM. The TGI (ACHN renal) was > 100 µM, the GI50 (CCRF-CEM leukemia) was 4.11 µM and the TGI (CCRF-CEM leukemia) was > 100 µM. The GI50 (HOP-62 NSCLC) was 9.57 µM, the TGI (HOP-62 NSCLC) was > 100 µM and the GI50 (IGROV1 ovarian) was 13.1 µM. For the same compound, the TGI (IGROV1 ovarian) was > 100 µM, the GI50 (LOX IMVI melanoma) was 2.89 µM and the TGI (LOX IMVI melanoma) was > 100 µM. For the same compound, the GI50 (M14 melanoma) was 4.22 µM, the TGI (M14 melanoma) was > 100 µM and the GI50 (NCI-H522 lung) was 3.39 µM. The TGI (NCI-H522 lung) was 25 µM, the GI50 (SNB-75 CNS) was 3.92 µM and the TGI (SNB-75 CNS) was > 100 µM. The GI50 (TK-10 renal) was 30.6 µM and the TGI (TK-10 renal) was > 100 µM.
